{"source": "patent US7888123B2", "about": "(priority 2005, dated 2011)", "key": {"[1]": {"test_system": "Schizochytrium sp. CB15-5", "details": "medium containing 10 to 30 μg/ml Zeocin; 28° C., 72 hours in the shade", "protocol": "(3) Test for Zeocin Sensitivity of CB15-5 Strain\nThe precultured microorganism cells were diluted 1000-fold, and 100 μL thereof was seeded onto GYP plate media having Zeocin concentration ranging from 0 to 50 μg/ml, and incubated at 28° C. for 72 hours in the shade. The number and size of the resulting colonies were measured."}, "[2]": {"test_system": "transformant having actin promoter", "details": "GPY plate media, 28° C."}, "[3]": {"test_system": "transformant having ef1α promoter", "details": "GPY plate media, 28° C.", "protocol": "(§1) (22) Test for Zeocin Sensitivity of Transformant\n(§2) The precultured microorganism cells were diluted to 20 cells/μl, and 1 μl thereof was spotted onto GPY plate media having Zeocin concentration ranging from 0 to 6000 μg/ml and incubated in the shade at 28° C. for 60 hours."}, "[4]": {"test_system": "wild type (CB15-5 strain)", "details": "GPY plate media, 28° C.", "protocol": "as §1, §2"}, "[5]": {"test_system": "transformant having gapdh promoter", "details": "GPY plate media, 28° C.", "protocol": "as §1, §2"}}, "data": [{"smiles": "Cc1c(N)nc([C@H](CC(N)=O)NC[C@H](N)C(N)=O)nc1C(=O)N[C@H](C(=O)N[C@H](C)[C@@H](O)[C@H](C)C(=O)N[C@H](C(=O)NCCC1=N[C@@H](c2nc(C(=O)NCCCCN=C(N)N)cs2)CS1)[C@@H](C)O)[C@@H](O[C@@H]1O[C@@H](CO)[C@@H](O)[C@H](O)[C@@H]1O[C@H]1O[C@H](CO)[C@@H](O)[C@H](OC(N)=O)[C@@H]1O)c1cnc[nH]1", "note": "[Zeocin]", "values": [{"measurement": "number and size of the colonies", "setting": "[1]", "result": "concentration-dependent decrease"}, {"measurement": "Zeocin concentration up to which viable", "setting": "[2]", "result": "up to 4000 μg/ml"}, {"measurement": "Zeocin concentration up to which viable", "setting": "[3]", "result": "≤ 6000", "unit": "µg/mL"}, {"measurement": "Zeocin concentration in which completely nonviable", "setting": "[4]", "result": 20, "unit": "µg/mL"}, {"measurement": "Zeocin concentration up to which viable", "setting": "[5]", "result": "≤ 2000", "unit": "µg/mL"}]}]}
